Measured values: patent publication US5686486A, “4-hydroxy-benzopyran-2-ones and 4-hydroxy-cycloalkyl[b]pyran-2-ones useful to treat retroviral infections” (priority 1995, dated 1997)
Several values for one entry are separate records, joined by “and”; a condition that tells them apart may be missing. Equal values may be shown once.

Key:
HIV-1 protease [1] = molecular target: T1, HIV-1 protease (Human immunodeficiency virus type 1 group M subtype B, UniProt P04585); assay: biochemical; settings: for inhibition at 0.123 µM: read-out: HIV-1 Protease % Inhib, dose 0.123 uM; for inhibition at 0.37 µM: read-out: HIV-1 Protease % Inhib, dose 0.370 uM; for inhibition at 1.1 µM: read-out: HIV-1 Protease % Inhib, dose 1.100 uM; for inhibition at 3.3 µM: read-out: HIV-1 Protease % Inhib, dose 3.300 uM; for inhibition at 10 µM: read-out: HIV-1 Protease % Inhib, dose 10.000 uM; for inhibition at 30 µM: read-out: HIV-1 Protease % Inhib, dose 30.000 uM
How it was run: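 Percent inhibition derived from fluorescent cleavage product separated by filtration after streptavidin-bead capture of intact biotin/FITC substrate. Reaction: enzyme (10 μl, 0.1 μM stock) with substrate (20 μl, 0.2 μM stock) and compound, 1 h at room temperature in dark, pH 5.5 acetate buffer with 1.0 M NaCl and 0.05% NP-40.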

HIV-1 protease [2] = molecular target: T1, HIV-1 protease; assay: biochemical; settings: read-out: HIV-1 FITC KI
How it was run: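 Enzyme (40 nM stock) and substrate (200 μM stock) incubated with inhibitor, 24–48 two-fold serial concentrations, for 90 min at room temperature, then quenched with avidin beads. Nonlinear least-squares analysis gives Ki; a known-Ki inhibitor validates each run.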

SMILES | inhibition at 0.123 µM (HIV-1 protease [1]) [%] | inhibition at 0.37 µM (HIV-1 protease [1]) [%] | inhibition at 1.1 µM (HIV-1 protease [1]) [%] | inhibition at 3.3 µM (HIV-1 protease [1]) [%] | inhibition at 10 µM (HIV-1 protease [1]) [%] | inhibition at 30 µM (HIV-1 protease [1]) [%] | Ki (HIV-1 protease [2]) | HIV-1 Protease % Inhib (HIV-1 protease [1]; dose 0.123 uM) [%] | HIV-1 Protease % Inhib (HIV-1 protease [1]; dose 0.370 uM) [%] | HIV-1 Protease % Inhib (HIV-1 protease [1]; dose 1.100 uM) [%] | HIV-1 Protease % Inhib (HIV-1 protease [1]; dose 3.300 uM) [%] | HIV-1 Protease % Inhib (HIV-1 protease [1]; dose 10.000 uM) [%] | HIV-1 Protease % Inhib (HIV-1 protease [1]; dose 30.000 uM) [%]
CC(C)(C)OC(=O)NCCC(=O)Nc1cccc(C(c2c(O)c3c(oc2=O)CCCCC3)C2CC2)c1 (centres unmarked) [Example 214, Carbamic acid. [3-[[3-[cyclopropyl(2,5,6,7,8,9-hexahydro-4-hydroxy-2-oxocyclohepta[b]pyran-3-yl)methyl]phenyl]amino]-3-oxopropyl]-, 1,1-dimethylethyl ester] | 18.7 | 54 | 74.1 | 88.6 | 95.2 | 96.2 | 19.3 nM |  |  |  |  |  | 
O=C(CCn1ccc2ccccc21)Nc1cccc(C(c2c(O)c3c(oc2=O)CCCCC3)C2CC2)c1 (centres unmarked) [Example 215, 1H-Indole-1-propanamide, N-[3-[cyclopropyl(2,5,6,7,8,9-hexahydro-4-hydroxy-2-oxocyclohepta[b]pyran-3-yl)methyl]phenyl]-] | 13.5 | 43.3 | 76.1 | 97.9 | 107 | 98.5 | 27.8 nM |  |  |  |  |  | 
CCC(c1cccc(NC(=O)CCNC(=O)OC(C)(C)C)c1)c1c(O)c2c(oc1=O)CCCCCC2 (centres unmarked) [Example 219, Carbamic acid, [3-[[3-[1-(5,6,7,8,9,10-hexahydro4-hydroxy-2-oxo-2H-cycloocta[b]pyran-3-yl)propyl]phenyl]amino]-3-oxopropyl]-, 1,1-dimethylethyl ester] | 52.1 | 81 | 92.5 | 100 | 109 | 97.3 | 10.4 nM |  |  |  |  |  | 
CCOC(=O)Nc1cccc(C(c2c(O)c3c(oc2=O)CCCCCC3)C2CC2)c1 (centres unmarked) [Example 226, [3-[Cyclopropyl(5,6,7,8,9,10-hexahydro4-hydroxy-2-oxo-2H-cycloocta[b]pyran-3-yl)methyl]phenyl]-, ethyl ester carbamic acid] | 14.2 | 43.7 | 74.1 | 87.6 | 101 | 104 | 18.9 nM |  |  |  |  |  | 
O=c1oc2c(c(O)c1[C@H](c1ccccc1)C1CC1)CCCCCC2 [Example 229, (-)-(S)-3-(Cyclopropylphenylmethyl)-5,6,7,8,9,10-hexahydro-4-hydroxy-2H-cyclo[b]pyran-2-one] | 16.9 | 54.3 | 88.8 | 103 | 108 | 105 | 10.6 nM and 11.9 nM and 16.2 nM |  |  |  |  |  | 
O=c1oc2c(c(O)c1[C@H](c1cccc(NS(=O)(=O)c3ccc(F)cc3)c1)C1CC1)CCCCCC2 [Example 252, (-)-N-[3-[Cyclopropyl(5,6,7,8,9,10-hexahydro4-hydroxy-2-oxo-2H-cycloocta[b]pyran-3-yl)methyl]phenyl]-4-fluoro-benzenesulfonamide] | 100 | 108 | 111 | 112 | 116 | 109 | 1.6 nM and 1.1 nM |  |  |  |  |  | 
Cn1cnc(S(=O)(=O)Nc2cccc([C@@H](c3c(O)c4c(oc3=O)CCCCCC4)C3CC3)c2)c1 [Example 254, (-)-N-[3-[Cyclopropyl(5,6,7,8,9,10-hexahydro-4-hydroxy-2-oxo-2H-cycloocta[b]pyran-3-yl)methyl]phenyl]-1-methyl-1H-imidazole-4-sulfonamide] |  |  |  |  |  |  | 0.65 nM | 82.28 | 97.98 | 107.75 | 111.05 | 112.1 | 103.1
O=c1oc2c(c(O)c1[C@H](c1cccc(NS(=O)(=O)c3cccc4cccnc34)c1)C1CC1)CCCCCC2 [Example 256, (-)-N-[3-[Cyclopropyl(5,6,7,8,9,10-hexahydro-4-hydroxy-2-oxo-2H-cycloocta[b]pyran-3-yl)methyl]phenyl]-8-quinolinesulfonamide] | 82.5 | 91.3 | 99 | 95 | 101 | 96.1 | 0.42 nM |  |  |  |  |  | 
O=c1oc2c(c(O)c1[C@@H](c1cccc(NS(=O)(=O)c3cccc4cccnc34)c1)C1CC1)CCCCCC2 [Example 260, (+)-N-[3-[Cyclopropyl(5,6,7,8,9, 10-hexahydro-4-hydroxy-2-oxo-2H-cycloocta[b]pyran-3-yl)methyl]phenyl]-8-quinolinesulfonamide] | 73.8 | 91.7 | 99 | 106 | 102 | 96.9 | 0.93 nM |  |  |  |  |  | 
CC(C)(C)c1ccc(S(=O)(=O)Nc2cccc(C(c3c(O)c4c(oc3=O)CCCCCC4)C3CC3)c2)cc1 (centres unmarked) [Example 265, N-[3-[Cyclopropyl(5,6,7,8,9,10-hexahydro-4hydroxy-2-oxo-2H-cycloocta[b]pyran-3-yl)methyl]phenyl]-4-(1,1-dimethylethyl)-benzenesulfonamide] | 25.3 | 54.8 | 76.9 | 86.1 | 100 | 98.3 | 31.5 nM |  |  |  |  |  | 
O=c1oc2c(c(O)c1C(c1cccc(NS(=O)(=O)c3ccc(Cl)c(Cl)c3)c1)C1CC1)CCCCCC2 (centres unmarked) [Example 269, 3,4-Dichloro-N-[3-[cyclopropyl(5,6,7,8,9,10-hexahydro-4-hydroxy-2-oxo-2H-cycloocta[b]pyran-3-yl)methyl]phenyl]-benzenesulfonamide] | 77.1 | 95.7 | 112 | 114 | 125 | 114 | 5.3 nM and 2.9 nM |  |  |  |  |  | 
O=c1oc2c(c(O)c1C(c1cccc(NS(=O)(=O)c3c(F)c(F)c(F)c(F)c3F)c1)C1CC1)CCCCCC2 (centres unmarked) [Example 278, N-[3-[Cyclopropyl(5,6,7,8,9,10-hexahydro-4-hydroxy-2-oxo-2H-cycloocta[b]pyran-3-yl)methyl]phenyl]-2,3,4,5,6-pentafluoro-benzenesulfonamide] | 36.3 | 78.2 | 94.7 | 101 | 102 | 110 | 13.6 nM |  |  |  |  |  | 
O=c1oc2c(c(O)c1C(c1cccc(NS(=O)(=O)c3cccc(C(F)(F)F)c3)c1)C1CC1)CCCCCC2 (centres unmarked) [Example 280, N-[3-[Cyclopropyl(5,6,7,8,9,10-hexahydro-4-hydroxy-2-oxo-2H-cycloocta[b]pyran-3-yl)methyl]phenyl]-3-(trifluoromethyl)-benzenesulfonamide] | 69.8 | 95.1 | 101 | 110 | 110 | 114 | 3 nM |  |  |  |  |  | 
O=c1oc2c(c(O)c1C(c1cccc(NS(=O)(=O)c3ccccc3F)c1)C1CC1)CCCCCC2 (centres unmarked) [Example 281, N-[3-[Cyclopropyl(5,6,7,8,9,10-hexahydro-4-hydroxy-2-oxo-2H-cycloocta[b]pyran-3-yl)methyl]phenyl]-2-fluoro-benzenesulfonamide] | 55.5 | 93.5 | 99.3 | 109 | 105 | 101 | 10.6 nM |  |  |  |  |  | 
O=c1oc2c(c(O)c1C(c1cccc(NS(=O)(=O)c3cc(Cl)cc(Cl)c3O)c1)C1CC1)CCCCCC2 (centres unmarked) [Example 284] | 37.5 | 77 | 99.8 | 107 | 107 | 104 | 12.2 nM |  |  |  |  |  | 
O=c1oc2c(c(O)c1C(c1cccc(NS(=O)(=O)c3ccccc3C(F)(F)F)c1)C1CC1)CCCCCC2 (centres unmarked) [Example 286, N-[3-[Cyclopropyl(5,6,7,8,9,10-hexahydro4-hydroxy-2-oxo-2H-cycloocta[b]pyran-3-yl)methyl]phenyl]-2-(trifluoromethyl)-benzenesulfonamide] | 30 | 62.4 | 83.3 | 92.3 | 97.4 | 93.7 | 21.4 nM |  |  |  |  |  | 
O=c1oc2c(c(O)c1C(c1cccc(NS(=O)(=O)c3cccc4nonc34)c1)C1CC1)CCCCCC2 (centres unmarked) [Example 290, N-[3-[Cyclopropyl(5,6,7,8,9,10-hexahydro-4-hydroxy-2-oxo-2H-cycloocta[b]pyran-3-yl)methyl]phenyl]-4-benzofurazansulfonamide] | 90.3 | 115 | 123 | 119 | 126 | 114 | 2.7 nM |  |  |  |  |  | 
Cc1nn(C)c(Cl)c1S(=O)(=O)Nc1cccc(C(c2c(O)c3c(oc2=O)CCCCCC3)C2CC2)c1 (centres unmarked) [Example 294, 5-Chloro-N-[3-[cyclopropyl(5,6,7,8,9,10-hexahydro-4-hydroxy-2-oxo-2H-cycloocta[b]pyran-3-yl)methyl]phenyl]-1,3-dimethyl-1H-pyrazole-4-sulfonamide] |  | 20.9 | 52.9 | 81.1 | 94.7 | 110 | 139 nM |  |  |  |  |  | 
